Paper PMC11649037, “Monitoring conformational changes in the human neurotransmitter transporter homologue LeuT with ^19F‐NMR spectroscopy” (Journal of Neurochemistry, 2024)

Target: T1, LeuT (Leucine Transporter) (Aquifex aeolicus, UniProt O67854, K398C)
T1 construct: gene snf; LeuT K398C labelled with BTFA, in DDM micelles
Assay: 1D […]-NMR, […] L-ala with […] Na+ (shift to outward-facing closed state)
Format: binding

C[C@H](N)C(=O)O [Alanine]
1D 19F-NMR, 4 mM L-ala with 200 mM Na+ (shift to outward-facing closed state): Alanine/Na^+ K398C‐BTFA LeuT (Figure 2e) and Phenylalanine/Na^+ K398C‐BTFA LeuT (Figure 2f) which show a similar shift toward S1 resonance
